Experimental data published in US5473074A, “Adenosine diphosphoribose polymerase binding nitroso aromatic compounds useful as retroviral inactivating agents, anti-retroviral agents and anti-tumor agents-54” (priority 1992, dated 1995).
pIC50: −log10 of the molar value.

Experiments:
[1] = tested on: HL-60 cells; assay: Colony formation (CFU) in semi-solid medium, HL-60; type: cell-based, human; details: single cells in semi-solid medium
[2] = tested on: cells / HIV; assay: Anti-tumor / anti-HIV (biological) action, general statement
[3] = tested on: normal cells (neutrophil leukocytes and bone marrow or peripheral blood stem cells); assay: Functions/viability of normal cells in absence or presence of compounds
Method: Experiments were performed in which the functions of various cancer cells (855-2 and HL-60 leukemia cells, D32, D37 and CRL 7712 glioblastoma cell lines, 186 medulla tumor cell line, L1210 murine leukemia cell line, MDA-468 human breast tumor cell line) and normal cells (neutrophil leukocytes and bone marrow or peripheral blood stream cells) were assessed in the absence or presence of the compounds.

[4] = target: calf thymus ADPRT (Bos taurus, UniProt P18493); assay: ADPRT polymerase activity inhibition/inactivation (I50)
Method: The compounds of the subject invention were tested for their ability to inactivate the polymerase activity of adenosinediphosphoribosyl transferase (ADPRT). Assays were performed according to the method of Buki and Kun, Biochem. 27:5990-5995 (1988), using calf thymus ADPRT.
Assay conditions: ADPRT, 0.4 μg; coDNA, 4 μg; inhibitor diluted
between 0.8 and 600 μM, in 50 μl of 50 mM TrisHCl, 50 mM KCl, 5 mM
2mercaptoethanol, 0.5 mM EDTA, 0.1 mM NAD ([32Plabelled), pH 7.5.
Polymerization at 25° C. for 4 minutes.

[5] = tested on: HIV-1 (MN strain) virions; assay: Zinc loss from HIV-1 virions treated with NOBA; type: biochemical
Method: Experiments were performed to determine if NOBA is capable of ejecting zinc from intact virions. HIV-1 (MN strain) was produced, purified and concentrated as described in Bess et al., J. Virol. 66:840-847 (1992). The concentrated virus was diluted to 60 times that of culture fluid in TNE buffer (0.01M Tris-HCl, 0.1M NaCl, 1 mM EDTA, pH 7.2) and incubated with 3000 or 6000 μM NOBA at 37° C. The virus was then pelleted and washed with TNE buffer to remove weakly bound zinc. The quantity of zinc in the resulting viral pellets was determined as described in Bess et. al., J. Virol. 66:840-847 (1992).

[6] = tested on: 855-2 cells; assay: [3H]thymidine uptake / growth, 855-2 cells; type: cell-based, human
[7] = PHA-PBL viability (MTT dye reduction); type: cell-based; details: human, read-out: concentration tolerated by human lymphocytes without major changes in cell metabolism
Method: PHA-PBL (10^6 /ml) were treated with increasing doses of NOBA for 24 hours in the presence of MTT substrate and the relative absorbance at 550 nm reflects the metabolic activity of the cells. The level of product formation in the absence of NOBA was considered to be 100% and all experimental values were normalized to that control value.
(§1) Experiments were performed in which the incubations with NOBA was carried out at 0°, 22°, and 37° C. […] In agreement with the negligible cytotoxic effect of C-nitroso drugs on non-tumor cells described elsewhere in this application, human lymphocytes tolerated NOBA up to 50 μM without major changes in cell metabolism, which was assayed by quantitative dye reduction as described in Mosaran, J. Imm. Methods 65:55-63 (1983).

[8] = tested on: HIV-1 (LAV strain); assay: HIV-1 inactivation assay in PHA-stimulated PBL (FIG. 13A, B); type: cell-based
Method: The assay was performed as described in FIG. 13A except that the 30 min. preincubation of virus with NOBA was carried out at 0, 22 or 37° C.
An HIV-1 stock having an infectivity titer of 100,000 TCID50 was incubated for 30 min. at 22° C. with either of the drugs. Control HIV samples, containing no drugs, were incubated in the same manner. […] At the end of this incubation cultures were assayed for productive infection by an immunoassay for HIV-1 antigens and by reverse transcriptase as described in McDougal, et al., J. Immunol Methods 76:171-183 (1985). Virus titers were expressed as percentile values (percent infected cultures) compared to the controls, containing HIV dilutions which were not preincubated with the C-nitroso drugs. In a separate series of experiments, HIV-1 dilutions and C-nitroso drugs (see upper abscissa) were not preincubated but were added simultaneously to lymphocytes in exactly the same concentrations as described previously (i.e., following preincubation) and viral growth monitored 9 days later. […] Chem. Soc. 111:395-396 (1989), South, et al., Biochem Pharm. 40:123-129 (1990), Summers, et al., Biochemistry 29:329-340 (1990), the inhibition of HIV-1 propagation was profound when C-nitroso drugs were preincubated with HIV-1, whereas only negligible effect on HIV-1 growth occurred when both drugs and virus were added simultaneously.
as §1

Chain of calf thymus ADPRT (P18493 whole entry): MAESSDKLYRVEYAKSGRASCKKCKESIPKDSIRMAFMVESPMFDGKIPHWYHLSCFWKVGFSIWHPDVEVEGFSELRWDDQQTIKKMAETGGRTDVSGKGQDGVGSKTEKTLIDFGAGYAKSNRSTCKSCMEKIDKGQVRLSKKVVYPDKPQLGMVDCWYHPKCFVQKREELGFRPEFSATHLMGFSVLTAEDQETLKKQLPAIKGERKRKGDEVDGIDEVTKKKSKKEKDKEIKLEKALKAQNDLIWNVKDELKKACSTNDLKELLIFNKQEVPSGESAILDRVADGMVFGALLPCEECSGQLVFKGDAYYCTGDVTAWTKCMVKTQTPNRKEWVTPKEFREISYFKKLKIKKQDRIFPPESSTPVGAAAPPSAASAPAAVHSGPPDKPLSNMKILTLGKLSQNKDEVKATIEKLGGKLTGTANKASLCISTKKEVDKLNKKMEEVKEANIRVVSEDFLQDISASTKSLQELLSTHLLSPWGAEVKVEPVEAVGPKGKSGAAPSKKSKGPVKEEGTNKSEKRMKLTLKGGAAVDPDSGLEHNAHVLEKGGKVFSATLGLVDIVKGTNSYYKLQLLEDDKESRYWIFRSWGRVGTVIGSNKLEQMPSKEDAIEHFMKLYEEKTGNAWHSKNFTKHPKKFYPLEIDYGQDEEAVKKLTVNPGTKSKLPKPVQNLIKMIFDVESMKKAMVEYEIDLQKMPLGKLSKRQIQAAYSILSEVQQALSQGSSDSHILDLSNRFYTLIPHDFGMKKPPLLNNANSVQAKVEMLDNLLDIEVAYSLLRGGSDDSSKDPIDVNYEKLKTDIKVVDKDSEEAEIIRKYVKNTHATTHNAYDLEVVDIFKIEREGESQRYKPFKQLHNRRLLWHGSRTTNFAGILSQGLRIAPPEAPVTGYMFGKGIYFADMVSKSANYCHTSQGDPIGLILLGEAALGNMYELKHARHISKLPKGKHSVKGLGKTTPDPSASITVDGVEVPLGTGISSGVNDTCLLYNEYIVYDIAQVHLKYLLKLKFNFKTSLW

With NC(=O)c1cccc(N=O)c1 [NOBA, 3-nitrosobenzamide] the “colony formation, HL-60, in words” value [1] was “inhibit the ability of human leukemic cells (855-2 and HL-60) to form colonies”, the “anti-tumor and anti-HIV activity, in words” value [2] was “highly active as anti-tumor and anti-HIV molecules” and the “effectiveness after short exposure of cells” value ([2]; exposure as short as 30 minutes) was “effective even after exposure of cells for a period as short as 30 minutes”. The “effect on normal stem cell colony formation (FIG. 5), in words” value ([3]; anti-leukemic doses, soft agar, rhesus bone marrow or human peripheral blood stem cells) was “minimal effect on normal cells”, the “effect on viability of normal cells, in words” value ([3]; tumor cell inhibitory concentrations) was “not to affect adversely the viability of normal cells” and the pIC50 [4] was 4.82. The “Zinc Loss” value ([5]; 3,000 μM, 2 h, 37° C.) was 52%, the “Zinc, NOBA-Treated Sample” value ([5]; 3,000 μM, 2 h, 37° C., control 0.21) was 0.11 µg/mL and the “Zinc Loss” value ([5]; 6,000 μM, 4 h, 37° C.) was 83%. For the same compound, the “Zinc, NOBA-Treated Sample” value ([5]; 6,000 μM, 4 h, 37° C., control 0.24) was 0.04 µg/mL, the “losses of the viral zinc” value ([5]; 3000 or 6000 μM, 37° C.) was 50-83% and the “infectivity of HIV-1 virions, in words” value ([5]; concentrated suspensions (60×)) was “complete loss of infectivity”. For the same compound, the “loss of viral proteins in the pellet, in words” value ([5]; p24 and gp120 competition RIA, SDS-PAGE) was “No significant loss of viral proteins”, the “growth arrest of 855-2 cells at increasing serum concentration” value ([6]; 10 μM, increasing FCS) was “Growth arrest occurs irrespective of the concentration of FCS” and the “relative potency, 855-2” value ([6]; 10% fetal bovine serum) was “potent inhibitory effects regardless of the source of growth factor activity”. The MNTC at 24 h [7] was no less than 50 µM, the log reduction at 100 µM ([8]; Human immunodeficiency virus 1, 0.5 h, 100 μM, 30 min, 22° C., 9 days, read-out: decrease of infectious virus available to cause 50% infected cultures) was 4 and the “relative depression of HIV-1 propagation, in words” value ([8]; NOBA vs NOBP) was “greater depression of HIV-1 propagation”. For the same compound, the “temperature of maximal inactivation of HIV-1” value ([8]; preincubation at 0°, 22° and 37° C.) was 37 °C.
